Patent publication US20050197338A1, “Substituted pyrazole urea compounds for the treatment of inflammation” (priority 2003, published 2005)

Target: T1, Rat IKK-2 (Rattus norvegicus, UniProt Q9QY78)
T1 sequence (Q9QY78 1-757): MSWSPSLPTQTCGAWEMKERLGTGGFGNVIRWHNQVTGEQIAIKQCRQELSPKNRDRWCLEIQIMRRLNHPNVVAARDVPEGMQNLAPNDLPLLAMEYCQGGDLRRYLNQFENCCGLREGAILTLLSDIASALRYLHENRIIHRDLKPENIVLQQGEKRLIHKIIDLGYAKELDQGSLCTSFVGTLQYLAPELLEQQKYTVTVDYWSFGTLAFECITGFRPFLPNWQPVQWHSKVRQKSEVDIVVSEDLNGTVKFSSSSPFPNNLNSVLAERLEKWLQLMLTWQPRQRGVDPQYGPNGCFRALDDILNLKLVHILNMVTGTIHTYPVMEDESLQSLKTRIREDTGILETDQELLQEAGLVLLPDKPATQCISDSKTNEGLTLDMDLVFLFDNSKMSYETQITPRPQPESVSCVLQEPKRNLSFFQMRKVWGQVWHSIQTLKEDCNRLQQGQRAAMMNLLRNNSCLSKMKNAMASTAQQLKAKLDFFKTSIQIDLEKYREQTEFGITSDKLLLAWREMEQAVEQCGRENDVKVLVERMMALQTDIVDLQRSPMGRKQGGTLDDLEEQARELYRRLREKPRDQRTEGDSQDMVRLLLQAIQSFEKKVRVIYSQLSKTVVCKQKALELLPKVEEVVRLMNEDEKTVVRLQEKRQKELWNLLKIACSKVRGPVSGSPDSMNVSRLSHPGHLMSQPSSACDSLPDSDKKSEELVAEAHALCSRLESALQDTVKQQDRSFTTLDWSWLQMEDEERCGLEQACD
Test: Rat IKK-2 enzyme assay
Format: biochemical
Settings: read-out: IC50 (μM) rIKK-2
Description: Kinase activity was measured using a biotinylated […] peptide (Gly-Leu-Lys-Lys-Glu-Arg-Leu-Leu-Asp-Asp-Arg-His-Asp-Ser32-Gly-Leu-Asp-Ser36-Met-Lys-Asp-Glu-Glu) (American Peptide Co.). 20 μL of the standard reaction mixture contained 5 μM biotinylated IκBα peptide, 0.1 μCi/reaction [γ-^33P] ATP (Amersham) (about 1×10^5 cpm), 1 μM ATP (Sigma), 1 mM DTT (Sigma), 2 mM MgCl2 (Sigma), 2 mM MnCl2 (Sigma), 10 mM NaF (Sigma), 25 mM Hepes (Sigma) buffer, pH. 7.6 and 20 μL enzyme solution (50 nM/rxn or 200 ng/rxn) and 10 μL inhibitor in a final volume of 50 μL. After incubation at 25° C. for 60 min, 150 μL resin was added to each well to stop the reaction. Resin was mixed and allowed to settle for 1 h and 50 μL of supernatant was removed to a Micolite 2 flat bottom plate (Dynex). 150 μL of scintillation fluid (Microscint 40) (Packard) was added to each well. Incorporation of [γ-^33P] ATP was measured using a Top-Count NXT (Packard).

SMILES	IC50 [µM]
COc1ccc(F)cc1-c1ccc(-n2cc(NC(N)=O)c(C(N)=O)n2)cc1F [Example 269, 4-[(aminocarbonyl)amino]-1-(2,5′-difluoro-2′-methoxy-1,1′-biphenyl-4-yl)-1H-pyrazole-3-carboxamide]	0.781
NC(=O)Nc1cn(-c2ccc(S(=O)(=O)c3ccccc3F)c(Cl)c2)nc1C(N)=O [Example 271, 4-[(aminocarbonyl)amino]-1-{3-chloro-4-[(2-fluorophenyl)sulfonyl]phenyl}-1H-pyrazole-3-carboxamide]	0.956
CCOc1cc(-n2cc(NC(N)=O)c(C(N)=O)n2)ccc1-c1ccc(OCC(N)=O)cc1 [Example 275, 4-[(aminocarbonyl)amino]-1-[4′-(2-amino-2-oxoethoxy)-2-ethoxy-1,1′-biphenyl-4-yl]-1H-pyrazole-3-carboxamide]	10.8
Cc1cccc(Sc2ccc(-n3cc(NC(N)=O)c(C(N)=O)n3)cc2)c1 [Example 292, 1-(1-(4-(m-tolylthio)phenyl)-3-carbamoyl-1H-pyrazol-4-yl)urea]	4.16
NC(=O)Nc1cn(-c2ccc(Sc3cccc(Br)c3)cc2)nc1C(N)=O [Example 293, 1-(1-(4-(3-bromophenylthio)phenyl)-3-carbamoyl-1H-pyrazol-4-yl)urea]	4.82
NC(=O)Nc1cn(-c2cccc(O)c2)nc1C(N)=O [Example 300, 1-(3-hydroxy-phenyl)-4-ureido-1H-pyrazole-3-carboxylic acid amide]	0.378
Cc1cc(-n2cc(NC(N)=O)c(C(N)=O)n2)ccc1F [Example 304, 4-[(aminocarbonyl)amino]-1-(4-fluoro-3-methylphenyl)-1H-pyrazole-3-carboxamide]	0.547
CCCOc1ccc(-n2cc(NC(N)=O)c(C(N)=O)n2)cc1C [Example 306, 4-[(aminocarbonyl)amino]-1-(3-methyl-4-propoxyphenyl)-1H-pyrazole-3-carboxamide]	0.766
Cc1cc(-n2cc(NC(N)=O)c(C(N)=O)n2)ccc1OCc1ccccc1 [Example 307, 4-[(aminocarbonyl)amino]-1-[4-(benzyloxy)-3-methylphenyl]-1H-pyrazole-3-carboxamide]	6.44
Cc1cc(-n2cc(NC(N)=O)c(C(N)=O)n2)ccc1Sc1cccc(F)c1 [Example 311, 1-[4-(3-fluoro-phenylsulfanyl)-3-methyl-phenyl]-4-ureido-1H-pyrazole-3-carboxylic acid amide]	2.33
Cc1cc(-n2cc(NC(N)=O)c(C(N)=O)n2)ccc1S(=O)(=O)c1cccc(F)c1 [Example 312, 1-[4-(3-fluoro-benzenesulfonyl)-3-methyl-phenyl]-4-ureido-1H-pyrazole-3-carboxylic acid amide]	0.975
CCc1ccccc1-n1cc(NC(N)=O)c(C(N)=O)n1 [Example 314, 1-(2-ethyl-phenyl)-4-ureido-1H-pyrazole-3-carboxylic acid amide]	> 20
Cc1cccc(-n2cc(NC(N)=O)c(C(N)=O)n2)c1 [Example 315, 1-m-tolyl-4-ureido-1H-pyrazole-3-carboxylic acid amide]	0.632
NC(=O)Nc1cn(-c2cccc(F)c2)nc1C(N)=O [Example 316, 1-(3-fluoro-phenyl)-4-ureido-1H-pyrazole-3-carboxylic acid amide]	0.533
NC(=O)Nc1cn(-c2cccc(C(F)(F)F)c2)nc1C(N)=O [Example 317, 1-(3-trifluoromethyl-phenyl)-4-ureido-1H-pyrazole-3-carboxylic acid amide]	1.46
Cc1ccccc1-n1cc(NC(N)=O)c(C(N)=O)n1 [Example 318, 1-o-tolyl-4-ureido-1H-pyrazole-3-carboxylic acid amide]	8.52
NC(=O)Nc1cn(-c2cccc3c2sc2ccccc23)nc1C(N)=O [Example 324, 4-[(aminocarbonyl)amino]-1-dibenzo[b,d]thien-4-yl-1H-pyrazole-3-carboxamide]	> 20
Cc1ccc(-n2cc(NC(N)=O)c(C(N)=O)n2)cc1F [Example 326, 4-[(aminocarbonyl)amino]-1-(3-fluoro-4-methylphenyl)-1H-pyrazole-3-carboxamide]	0.365
NC(=O)Nc1cn(-c2ccc(OC(F)(F)F)cc2)nc1C(N)=O [Example 328, 4-[(aminocarbonyl)amino]-1-[4-(trifluoromethoxy)phenyl]-1H-pyrazole-3-carboxamide]	0.446
COc1ccc(-n2cc(NC(N)=O)c(C(N)=O)n2)cc1OC [Example 330, 4-[(aminocarbonyl)amino]-1-(3,4-dimethoxyphenyl)-1H-pyrazole-3-carboxamide]	1.78
CCCOc1ccc(-n2cc(NC(N)=O)c(C(N)=O)n2)cc1 [Example 332, 4-[(aminocarbonyl)amino]-1-(4-propoxyphenyl)-1H-pyrazole-3-carboxamide]	1.08
CCCOc1ccc(-n2cc(NC(N)=O)c(C(N)=O)n2)cc1Cl [Example 334, 4-[(aminocarbonyl)amino]-1-(3-chloro-4-propoxyphenyl)-1H-pyrazole-3-carboxamide]	2.42

These reach a lower IC50. Values come first.

IC50 [µM]	SMILES
0.167	NC(=O)Nc1cn(-c2ccc(-c3ccc(O)cc3)c(Cl)c2)nc1C(N)=O [Example 272, 4-[(aminocarbonyl)amino]-1-(2-chloro-4′-hydroxy-1,1′-biphenyl-4-yl)-1H-pyrazole-3-carboxamide]
0.203	NC(=O)Nc1cn(-c2cccc(Cl)c2F)nc1C(N)=O [Example 273, 1-(3-chloro-2-fluoro-phenyl)-4-ureido-1 h-pyrazole-3-carboxylic acid amide]
0.194	NC(=O)Nc1cn(-c2ccc(Br)c(O)c2)nc1C(N)=O [Example 276, 4-[(aminocarbonyl)amino]-1-(4-bromo-3-hydroxyphenyl)-1H-pyrazole-3-carboxamide]
0.237	NC(=O)Nc1cn(-c2ccc([S+]([O-])c3ccncc3)cc2)nc1C(N)=O (stereo not shown) [Example 294, 1-(3-carbamoyl-1-(4-(pyridin-4-ylsulfinyl)phenyl)-1H-pyrazol-4-yl)urea]
0.0369	NC(=O)Nc1cn(-c2ccc(S(=O)(=O)c3ccncc3)cc2)nc1C(N)=O [Example 295, 1-(3-carbamoyl-1-(4-(pyridin-4-ylsulfonyl)phenyl)-1H-pyrazol-4-yl)urea]
0.098	CCCc1ccc(-n2cc(NC(N)=O)c(C(N)=O)n2)cc1 [Example 305, 4-[(aminocarbonyl)amino]-1-(4-propylphenyl)-1H-pyrazole-3-carboxamide]
0.099	Cc1cc(-n2cc(NC(N)=O)c(C(N)=O)n2)ccc1-c1ccc(O)cc1 [Example 308, 1-(4′-hydroxy-2-methyl-biphenyl-4-yl)-4-ureido-1H-pyrazole-3-carboxylic acid amide]
0.086	Cc1cc(O)ccc1-c1ccc(-n2cc(NC(N)=O)c(C(N)=O)n2)cc1C [Example 309, 1-(4′-hydroxy-2,2′-dimethyl-biphenyl-4-yl)-4-ureido-1H-pyrazole-3-carboxylic acid amide]
0.095	Cc1cc(-n2cc(NC(N)=O)c(C(N)=O)n2)ccc1-c1ccc(O)c(F)c1 [Example 310, 1-(3′-fluoro-4′-hydroxy-2-methyl-biphenyl-4-yl)-4-ureido-1H-pyrazole-3-carboxylic acid amide]
